From publication PMC12291913 (Antibiotics, 2025)
Where two headings read alike, the source gives them in different places.

System: M. avium clinical isolate Koav 15 (WT)
Test: microbe, parasite or virus in culture
Format: cell-based
Settings: Mycobacterium avium

Measured: MIC

Cc1c(N2CC(N(C)C)C2)c(F)cc2c(=O)c(C(=O)O)cn(-c3nc(N)c(F)cc3F)c12 [WQ-3810]
1 µg/mL: drug alone, day 14, read-out: MIC | read-out: MIC with 1 µg/mL EMB | read-out: MIC with 1 µg/mL INH
